pIC50: −log10 of the molar value. Where two headings read alike, the source gives them in different places. Values belong to the molecule of their own block, whether it stands above or below them.
Columns and labels:
FLAG-KDM5A = biological target: T1, FLAG-KDM5A (Homo sapiens, UniProt P29375); experiment: AlphaScreen screen of 8,861 compounds for KDM5A inhibitors; format: biochemical; conditions: 20 μM compound, threshold ~30% inhibition
T1 construct: Sf21 insect cells were infected with baculovirus to express full-length FLAG-KDM5A; made in house; host or cells: Sf21 insect cells (baculovirus)
Source text: The screen (see schematic in Figure 2A) included 8,861 compounds from selected small molecule libraries, including drugs approved for use in the clinic and diverse collections of compounds representing broad pharmacophore diversity and bioavailability. […] An inhibition threshold of three standard deviations (about 30% inhibition) identified 257 compounds. A counter-screen was used to eliminate any compounds that interfered with the assay itself by detecting the luminescent signal in the presence of the compound and positive control H3K4me2 peptide. The counter-screen validated 170 compounds. We chose 48 compounds from this list for dose-response analysis, including 42 of the top 44 compounds with the highest potency at 20 μM and 6 compounds with drug-like structures.
8,861 compounds from the ChemBridge MW-Set, ChemBridge DIVERSet, MicroSource Gen-Plus, MicroSource Pure Natural Products, NIH Clinical Collection, and Enzo Epigenetics libraries were screened for inhibition of FLAG-KDM5A demethylase activity. Compounds were dissolved in DMSO and added at 20 μM to 384-well white plates (Corning 3574) containing 64 nM bio-H3K4me3 peptide in demethylase buffer prior to addition of 13 nM FLAG-KDM5A. Hits were selected at a threshold of three standard deviations (~30% inhibition). A counter-screen was performed with the hits to eliminate any non-specific compounds. For this, 20 μM compounds were added to 64 nM bio-H3K4me2 peptide in demethylase buffer with no enzyme. Any hits that interfered with the positive signal detection were eliminated. Dose-response curves were performed on selected hits using 0.1–11 μM of compound. Further validation of top hits was performed using 5 μM of each compound or a dose-response curve using 0.05–50 μM of the compound.

full-length FLAG-KDM5A = biological target: T2, full-length FLAG-KDM5A (Homo sapiens, UniProt P29375); experiment: AlphaScreen KDM5A demethylation assay; format: biochemical; conditions: for Km: cofactor of KDM5A demethylation, 24 nM FLAG-KDM5A, read-out: average apparent Km
T2 construct: Sf21 insect cells were infected with baculovirus to express full-length FLAG-KDM5A; made in house; host or cells: Sf21 insect cells (baculovirus)
Source text: AlphaScreen technology (PerkinElmer) was utilized to perform a screen for small molecule inhibitors of KDM5A. The assay was comprised of two steps, a demethylation reaction followed by detection of the product. A biotinylated H3K4me3 peptide was used as substrate in the demethylation reaction with KDM5A in the presence or absence of small molecule inhibitors. The presence of peptide product (H3K4me1/2) was detected using a product-specific antibody and beads. For this, acceptor beads coated in protein A bound to the antibody, which recognized the peptide product. Donor beads coated in streptavidin bound biotin on the peptide substrate. If the demethylation reaction occurred, the beads were in very close proximity and laser excitation of the donor beads at 680nm caused a transfer of energy in the form of reactive singlet oxygen, resulting in emission by the acceptor beads between 520–620 nm ([30, 31], Figure 1A). The luminescent signal detected was a proxy for the amount of demethylation that occurred.
Reactions were carried out for 1 hour, or were stopped by addition of 30 mM EDTA every 5 minutes for determining enzyme kinetics. Km values were calculated using the Michaelis-Menten non-linear regression analysis on GraphPad Prism 6.0 software. The concentration of DMSO in demethylation reactions was 0.05%. For reactions with catalase, catalase (Sigma C30) or an equal volume of dilution buffer was added to the peptide-containing buffer before addition of the demethylase. The final concentration of catalase in the reactions was 0.01 mg/ml.
(§1) The AlphaScreen general IgG (protein A) detection kit from PerkinElmer Life Sciences was used as described previously. The luminescence emission was recorded at 570 nm using the AlphaScreen optic module on a Pherastar (BMG Labtech) or Envision (PerkinElmer Life Sciences) microplate reader.
IC50 values were calculated by log transformation and non-linear regression log(inhibitor) versus response(three parameters) using Graphpad Prism 6.0 software.

FLAG-KDM5B = biological target: T3, FLAG-KDM5B (Homo sapiens, UniProt Q9UGL1); experiment: AlphaScreen KDM5B demethylation assay; format: biochemical
T3 construct: Full-length FLAG-KDM5B, FLAG-KDM5C, and His-FLAG-KDM6A production was detailed previously; FLAG (N); made in house
Description: (§2) Histone demethylase assays were performed as described previously, with the exception of all enzyme reactions containing 125 μM α-KG. Enzymes were used at the following approximate concentrations in validation experiments, chosen based on their activity in AlphaScreen assays: 19 nM FLAG-KDM5A, 15 nM FLAG-KDM5B, 6 nM FLAG-KDM5C, 29 nM His-FLAG-KDM6A, and 16 nM FLAG-KDM6B. 24 nM FLAG-KDM5A was used for Km determination experiments. Reactions were carried out for 1 hour, or were stopped by addition of 30 mM EDTA every 5 minutes for determining enzyme kinetics. Km values were calculated using the Michaelis-Menten non-linear regression analysis on GraphPad Prism 6.0 software. The concentration of DMSO in demethylation reactions was 0.05%. For reactions with catalase, catalase (Sigma C30) or an equal volume of dilution buffer was added to the peptide-containing buffer before addition of the demethylase. The final concentration of catalase in the reactions was 0.01 mg/ml.
as §1

FLAG-KDM5C = biological target: T4, FLAG-KDM5C (Homo sapiens, UniProt P41229); experiment: AlphaScreen KDM5C demethylation assay; format: biochemical
T4 construct: Full-length FLAG-KDM5B, FLAG-KDM5C, and His-FLAG-KDM6A production was detailed previously; FLAG (N); made in house
Description: as §2, §1

His-FLAG-KDM6A (UTX) = biological target: T5, His-FLAG-KDM6A (UTX) (Homo sapiens, UniProt O15550); experiment: AlphaScreen KDM6A demethylation assay; format: biochemical
T5 construct: Full-length FLAG-KDM5B, FLAG-KDM5C, and His-FLAG-KDM6A production was detailed previously; His (N); FLAG (N); made in house
Description: as §2, §1

[1] = biological target: T6, FLAG-KDM6B (1043-1682) (JMJD3) (Homo sapiens, UniProt O15054); experiment: AlphaScreen KDM6B demethylation assay; format: biochemical
T6 construct: FLAG-KDM6B (1043-1682) was purchased from BPS Bioscience (50115); FLAG (N); purchased BPS Bioscience 50115
Description: as §2, §1

[2] = system: H3K4 methylation in HeLa cells; experiment: Western blot of global H3K4 methylation, HeLa; format: cell-based, human; conditions: HeLa, 48 hr
Description: (§3) Cells were lysed as described previously. Histones were separated by centrifugation, resuspended in Laemmeli buffer, and sonicated. Protein concentration of cell lysates was measured by Bradford assay. Samples in Laemmeli buffer were boiled 10 minutes at 95°C and loaded onto 7% (whole cell lysates) or 18% (histones) SDS-PAGE gels. Membranes were blocked in 4% non-fat milk in Tris-buffered saline with 0.05% Tween (TBS-T) and incubated with primary antibodies in the same buffer or 5% bovine serum albumin in TBS-T overnight at 4°C. Membranes were incubated with secondary anti-rabbit or anti-mouse antibodies for one hour at room temperature. Blots were visualized by Thermo Scientific Pierce ECL Western Blotting Substrate (32106) or EMD Millipore Immobilon Western Chemiluminescent HRP Substrate (WBKLS0100) on film. Signal was quantified using ImageJ software.

[3] = system: H3K4 methylation in MCF7 cells; experiment: Western blot of global H3K4 methylation, MCF7; format: cell-based, human; conditions: 48 hr
Description: as §3

[4] = biological target: FLAG-tagged full-length KDM5A (lysine demethylase 5A) (UniProt P29375)
FLAG-tagged full-length KDM5A (lysine demethylase 5A), sequence (P29375 whole entry): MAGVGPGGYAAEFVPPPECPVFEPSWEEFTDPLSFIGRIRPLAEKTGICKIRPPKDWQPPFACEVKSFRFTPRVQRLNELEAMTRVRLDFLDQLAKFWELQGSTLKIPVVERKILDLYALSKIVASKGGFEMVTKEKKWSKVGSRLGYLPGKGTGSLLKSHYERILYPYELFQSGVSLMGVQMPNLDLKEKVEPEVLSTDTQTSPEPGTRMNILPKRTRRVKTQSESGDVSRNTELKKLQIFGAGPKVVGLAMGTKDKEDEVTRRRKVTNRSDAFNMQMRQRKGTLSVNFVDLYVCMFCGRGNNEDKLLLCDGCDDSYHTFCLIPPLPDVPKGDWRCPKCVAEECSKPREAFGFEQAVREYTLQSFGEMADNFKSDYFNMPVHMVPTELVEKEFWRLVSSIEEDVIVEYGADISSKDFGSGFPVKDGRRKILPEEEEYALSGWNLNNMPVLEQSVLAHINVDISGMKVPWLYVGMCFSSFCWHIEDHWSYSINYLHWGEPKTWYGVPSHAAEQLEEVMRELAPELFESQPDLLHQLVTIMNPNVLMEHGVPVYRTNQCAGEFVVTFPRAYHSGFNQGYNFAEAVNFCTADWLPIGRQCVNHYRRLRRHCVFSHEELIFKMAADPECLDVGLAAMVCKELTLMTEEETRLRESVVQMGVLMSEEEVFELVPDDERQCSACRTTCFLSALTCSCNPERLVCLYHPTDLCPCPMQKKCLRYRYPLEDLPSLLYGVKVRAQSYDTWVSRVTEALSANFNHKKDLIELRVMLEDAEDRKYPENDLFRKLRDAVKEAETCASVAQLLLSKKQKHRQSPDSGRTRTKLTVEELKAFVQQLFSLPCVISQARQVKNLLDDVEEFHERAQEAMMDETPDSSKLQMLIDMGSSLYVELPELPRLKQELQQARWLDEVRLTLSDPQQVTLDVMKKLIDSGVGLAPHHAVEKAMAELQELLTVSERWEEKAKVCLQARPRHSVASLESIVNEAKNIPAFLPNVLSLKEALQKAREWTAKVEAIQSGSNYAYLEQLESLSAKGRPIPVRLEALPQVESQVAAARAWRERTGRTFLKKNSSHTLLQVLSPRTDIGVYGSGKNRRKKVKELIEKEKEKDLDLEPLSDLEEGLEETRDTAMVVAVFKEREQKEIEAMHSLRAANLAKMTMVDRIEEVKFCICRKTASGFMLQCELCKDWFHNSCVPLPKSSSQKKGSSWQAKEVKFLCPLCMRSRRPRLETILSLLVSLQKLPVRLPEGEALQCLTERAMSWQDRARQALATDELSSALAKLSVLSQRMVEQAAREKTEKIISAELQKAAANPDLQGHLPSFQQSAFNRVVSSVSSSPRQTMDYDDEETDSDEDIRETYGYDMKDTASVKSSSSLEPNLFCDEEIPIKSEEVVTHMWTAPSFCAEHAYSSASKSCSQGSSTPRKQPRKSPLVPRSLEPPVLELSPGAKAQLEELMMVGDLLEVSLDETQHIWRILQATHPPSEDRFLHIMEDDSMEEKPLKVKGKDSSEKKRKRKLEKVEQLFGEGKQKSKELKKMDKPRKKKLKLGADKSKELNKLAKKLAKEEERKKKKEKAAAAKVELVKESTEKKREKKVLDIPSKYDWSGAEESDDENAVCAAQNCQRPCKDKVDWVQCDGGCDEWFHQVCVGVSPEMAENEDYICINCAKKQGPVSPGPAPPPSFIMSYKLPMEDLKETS

T1 sequence (P29375 whole entry): as above
T2 sequence (P29375 whole entry): as above
T3 sequence (Q9UGL1 whole entry): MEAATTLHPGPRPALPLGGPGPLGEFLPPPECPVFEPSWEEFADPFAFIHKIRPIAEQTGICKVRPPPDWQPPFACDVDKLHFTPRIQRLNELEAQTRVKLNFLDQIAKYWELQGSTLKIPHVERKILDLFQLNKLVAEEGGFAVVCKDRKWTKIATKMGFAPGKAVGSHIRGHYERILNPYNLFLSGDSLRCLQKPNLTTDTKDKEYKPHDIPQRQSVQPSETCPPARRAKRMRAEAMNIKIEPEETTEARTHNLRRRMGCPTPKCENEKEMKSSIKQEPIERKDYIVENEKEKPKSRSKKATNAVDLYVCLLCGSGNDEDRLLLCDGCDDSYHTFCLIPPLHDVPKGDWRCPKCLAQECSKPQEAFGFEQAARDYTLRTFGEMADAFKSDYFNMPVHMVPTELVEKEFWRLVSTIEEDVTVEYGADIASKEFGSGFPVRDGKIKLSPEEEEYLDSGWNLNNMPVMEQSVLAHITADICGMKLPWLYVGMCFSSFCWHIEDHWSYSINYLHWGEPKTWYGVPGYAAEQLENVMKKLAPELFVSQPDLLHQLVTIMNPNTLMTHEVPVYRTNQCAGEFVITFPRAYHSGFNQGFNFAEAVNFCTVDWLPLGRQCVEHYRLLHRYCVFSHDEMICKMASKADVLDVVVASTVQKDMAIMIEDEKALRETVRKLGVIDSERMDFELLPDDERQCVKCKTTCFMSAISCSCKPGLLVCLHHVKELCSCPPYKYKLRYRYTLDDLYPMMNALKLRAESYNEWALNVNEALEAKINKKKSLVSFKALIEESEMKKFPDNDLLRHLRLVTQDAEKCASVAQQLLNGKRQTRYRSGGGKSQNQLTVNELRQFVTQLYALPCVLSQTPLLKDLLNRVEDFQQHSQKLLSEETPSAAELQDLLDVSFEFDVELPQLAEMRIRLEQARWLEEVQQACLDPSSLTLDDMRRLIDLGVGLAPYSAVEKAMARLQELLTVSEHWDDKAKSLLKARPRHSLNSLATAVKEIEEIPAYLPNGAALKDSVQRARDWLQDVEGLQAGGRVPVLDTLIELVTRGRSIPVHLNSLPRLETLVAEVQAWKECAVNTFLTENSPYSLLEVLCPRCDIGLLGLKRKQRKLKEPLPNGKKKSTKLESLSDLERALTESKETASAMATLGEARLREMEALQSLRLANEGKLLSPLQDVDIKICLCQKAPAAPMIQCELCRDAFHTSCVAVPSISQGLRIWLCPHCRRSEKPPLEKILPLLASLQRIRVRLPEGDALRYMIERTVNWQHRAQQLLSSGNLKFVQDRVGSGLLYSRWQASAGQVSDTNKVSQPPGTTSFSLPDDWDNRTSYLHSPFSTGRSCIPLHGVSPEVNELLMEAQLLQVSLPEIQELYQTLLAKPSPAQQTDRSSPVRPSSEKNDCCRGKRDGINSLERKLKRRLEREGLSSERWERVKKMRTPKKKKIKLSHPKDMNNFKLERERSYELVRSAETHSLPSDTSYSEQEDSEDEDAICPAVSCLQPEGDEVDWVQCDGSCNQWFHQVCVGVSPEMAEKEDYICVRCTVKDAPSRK
T4 sequence (P41229 whole entry): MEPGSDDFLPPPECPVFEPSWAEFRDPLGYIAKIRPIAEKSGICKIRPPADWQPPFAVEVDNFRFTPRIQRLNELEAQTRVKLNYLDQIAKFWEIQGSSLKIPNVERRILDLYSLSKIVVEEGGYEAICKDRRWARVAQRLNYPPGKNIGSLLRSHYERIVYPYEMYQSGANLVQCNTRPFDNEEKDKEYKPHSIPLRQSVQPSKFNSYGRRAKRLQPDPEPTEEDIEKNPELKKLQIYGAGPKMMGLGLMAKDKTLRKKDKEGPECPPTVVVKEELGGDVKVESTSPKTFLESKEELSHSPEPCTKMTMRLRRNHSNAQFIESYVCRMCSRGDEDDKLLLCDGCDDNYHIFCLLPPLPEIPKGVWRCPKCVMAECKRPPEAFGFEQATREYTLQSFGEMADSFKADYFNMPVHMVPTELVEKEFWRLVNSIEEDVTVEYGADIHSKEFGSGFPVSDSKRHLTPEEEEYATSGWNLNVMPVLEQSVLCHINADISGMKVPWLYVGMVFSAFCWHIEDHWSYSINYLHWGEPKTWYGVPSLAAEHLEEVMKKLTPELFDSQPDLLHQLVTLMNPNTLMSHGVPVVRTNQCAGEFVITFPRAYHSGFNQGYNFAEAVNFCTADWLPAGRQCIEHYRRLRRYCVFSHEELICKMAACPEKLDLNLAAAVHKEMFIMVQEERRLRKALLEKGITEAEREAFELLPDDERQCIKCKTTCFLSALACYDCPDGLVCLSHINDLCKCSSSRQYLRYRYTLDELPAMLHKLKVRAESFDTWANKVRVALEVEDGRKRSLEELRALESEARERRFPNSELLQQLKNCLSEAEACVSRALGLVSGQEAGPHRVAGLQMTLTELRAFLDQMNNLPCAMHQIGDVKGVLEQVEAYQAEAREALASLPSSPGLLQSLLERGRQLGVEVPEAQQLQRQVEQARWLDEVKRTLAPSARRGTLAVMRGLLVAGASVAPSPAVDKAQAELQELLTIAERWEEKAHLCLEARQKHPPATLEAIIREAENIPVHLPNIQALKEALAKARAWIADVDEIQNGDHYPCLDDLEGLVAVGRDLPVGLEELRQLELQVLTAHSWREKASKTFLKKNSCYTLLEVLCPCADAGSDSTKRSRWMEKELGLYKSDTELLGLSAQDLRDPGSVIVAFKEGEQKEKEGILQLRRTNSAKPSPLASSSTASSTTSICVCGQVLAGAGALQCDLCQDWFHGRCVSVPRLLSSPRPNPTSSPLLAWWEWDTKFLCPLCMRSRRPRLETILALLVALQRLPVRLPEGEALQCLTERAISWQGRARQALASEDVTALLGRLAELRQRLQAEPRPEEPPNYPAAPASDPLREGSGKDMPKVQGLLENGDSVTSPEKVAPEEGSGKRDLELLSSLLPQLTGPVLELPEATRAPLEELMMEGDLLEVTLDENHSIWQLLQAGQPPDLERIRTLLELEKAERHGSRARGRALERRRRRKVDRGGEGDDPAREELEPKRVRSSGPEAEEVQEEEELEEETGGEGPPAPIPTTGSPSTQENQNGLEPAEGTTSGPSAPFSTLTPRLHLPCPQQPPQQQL

Molecule: O=C(O)c1ccnc(C(=O)O)c1 [2,4-PDCA, 2,4-pyridinedicarboxylic acid]
outcome in the KDM5A inhibitor screen (FLAG-KDM5A): active hits

Molecule: [Fe+2] [Fe(II)]
Km (full-length FLAG-KDM5A): ~3 µM

Molecule: [Cl-].[Na+] [NaCl, sodium chloride]
concentration above which FLAG-KDM5A showed little activity (full-length FLAG-KDM5A; salt titration in the demethylation reaction): more than 50 mM

Molecule: Cc1ccc(-n2sc3ccccc3c2=O)cc1 [PBIT, 2-4(4-methylphenyl)-1,2-benzisothiazol-3(2H)-one]
outcome in the KDM5A inhibitor screen (FLAG-KDM5A): active hits

Molecule: C=CCn1c(S)nnc1CNC(=O)c1cccc(C)c1 [YUKA2, N-[(4-allyl-5-mercapto-4H-1,2,4-triazol-3-yl)methyl]-3-methylbenzamide]
mode of inhibition with respect to Fe(II) (full-length FLAG-KDM5A): uncompetitive with respect to Fe(II) | change of IC50 over a 16-fold range of α-KG concentrations (full-length FLAG-KDM5A; 150 nM H3K4me3 peptide, 50 μM Fe(II)): did not change significantly | enzyme inhibition at low Fe(II) (full-length FLAG-KDM5A; 5 μM Fe(II)): too weak to generate robust IC50 curves | effect of catalase on inhibitory potency against KDM5A (full-length FLAG-KDM5A; 0.01 mg/ml catalase): did not affect | pIC50 (full-length FLAG-KDM5A; AlphaScreen, 1 hour reaction, 0.05–50 μM compound): 5.88 | pIC50 (FLAG-KDM5B; AlphaScreen): < 4.30 | activity against KDM5B (FLAG-KDM5B; at 50 μM): no activity | fold less active against KDM5C (than KDM5A) (FLAG-KDM5C): ~5 fold | pIC50 (FLAG-KDM5C; AlphaScreen): 5.18 | pIC50 (His-FLAG-KDM6A (UTX)): < 4.30 | pIC50 [1]: < 4.30 | H3K4me3 Fold (H3K4me3/Total H3, normalized to DMSO) ([2]; 50 μM): 1.6 | H3K4me3 Fold (H3K4me3/Total H3, normalized to DMSO) ([2]; 100 μM): 1.7 | H3K4me3 Fold (H3K4me3/Total H3, normalized to DMSO) ([3]; MCF7, 50 μM): 0.9 | H3K4me3 Fold (H3K4me3/Total H3, normalized to DMSO) ([3]; MCF7, 100 μM): 0.8

Molecule: [Cl-].[Cl-].[Zn+2] [ZnCl2, Zinc chloride]
concentration above which FLAG-KDM5A was sensitive (full-length FLAG-KDM5A; titration in the demethylation reaction): above 2 μM

Molecule: O=C(O)CCC(=O)C(=O)O [α-ketoglutarate]
Km (full-length FLAG-KDM5A; listed as α-KG): ~7 µM

Continued, values first:

outcome in the KDM5A inhibitor screen (FLAG-KDM5A): active hits
Molecule: O=C(O)/C=C/c1ccc(O)c(O)c1 [caffeic acid]

outcome in the KDM5A inhibitor screen (FLAG-KDM5A): active hits
Molecule: C[C@@](Cc1ccc(O)c(O)c1)(NN)C(=O)O [carbidopa]

outcome in the KDM5A inhibitor screen (FLAG-KDM5A): active hits
Molecule: N[C@@H](Cc1ccc(O)c(O)c1)C(=O)O [levodopa]

outcome in the KDM5A inhibitor screen (FLAG-KDM5A): active hits
Molecule: C[C@](N)(Cc1ccc(O)c(O)c1)C(=O)O [methyldopa]

average apparent Km of the H3K4me3 peptide: rate of the demethylation reaction over increasing peptide concentrations, product detected by AlphaScreen (24 nM FLAG-KDM5A) [4]: 0.028 µM
Molecule: biotinylated H3K4me3 peptide

Reference: paper PMC5129982, “Screen-identified selective inhibitor of lysine demethylase 5A blocks cancer cell growth and drug resistance” (Oncotarget, 2016)
